Test results published in PubChem BioAssay AID488890 (Southern Research Specialized Biocontainment Screening …, 2010).
Inconclusive results are not listed. Calls of active or inactive are those of the source. How the calls were made is not given here.

The compounds below were run on Mycobacterium tuberculosis non-replicating, growth inhibition (assay: growth inhibition of non-replicating M. tuberculosis (AID 488890)).

SMILES | IC50
CC(C)(C)NCc1cc(Br)ccc1OCc1cccs1 | 9.07 µM
COCCNC(=O)c1cc2cc(Cl)cc(Cl)c2oc1=O | 3.67 µM
Cc1nnsc1C(=O)N/N=C/c1ccc2ccccc2c1O | 0.48 µM
Clc1ccccc1OCc1nnc(-c2ccccc2)o1 | 4.35 µM
CCOc1ccc(OCc2ccc(C(=O)OCc3ccccn3)o2)cc1 | 8.49 µM
Cc1cc(Nc2ccccc2)n(-c2nc3ccccc3[nH]2)n1 | 3.88 µM
COc1ccc(-c2[nH]ncc2CN2CCCCCCC2)c(OC)c1 | 11 µM (inactive)
O=C(Nc1nccs1)c1cc2cc(Cl)ccc2oc1=O | 3.23 µM
Oc1ccccc1/C=N/Nc1nc2ccccc2o1 | 0.19 µM
Clc1ccc(SCCCCn2ccnc2)cc1 | 4.89 µM
CC(C)c1ccc(C2=C(O)c3ccccc3C(=O)C2=O)cc1 | 3.7 µM
Cc1ccc(Sc2ccc(C=C3C(=O)N(C)C(=O)N(C)C3=O)o2)cc1 | 3.04 µM
O=C(N/N=C(\c1ccccc1)c1ccccn1)c1cccc([N+](=O)[O-])c1 | 1.93 µM
O=C(CN1CCC(Cc2ccccc2)CC1)NC(=O)NC1CCCCC1 | 19 µM (inactive)
CCOc1ccc(-c2ccc(C=O)o2)c([N+](=O)[O-])c1 | 19 µM (inactive)
CCc1nnc(N/N=C/c2ccc(N3CCC(C)CC3)c([N+](=O)[O-])c2)n1N | 3.83 µM
Cc1cc(NC(=O)c2sccc2C)n(-c2nc3ccccc3[nH]2)n1 | 8.81 µM
CCOC(=O)Cn1cc(C#N)c2ccccc21 | 6.17 µM
Cc1ccc(C(=O)COC(=O)CCc2ccc(S(=O)(=O)N3CCCCC3)cc2)cc1 | 23 µM (inactive)
CCOC(=O)CNc1ccc(C(=O)OCC)cc1[N+](=O)[O-] | 11 µM (inactive)
CCCCCOc1ccc(Br)cc1/C(C)=N/NC1=NCCN1 | 7.59 µM
COc1ccc(NC(=O)c2ccc(-c3ccc([N+](=O)[O-])cc3)o2)cc1OC | 3.93 µM

SMILES | IC50
CCc1ccc2c(c1)Sc1ccccc1CC2N1CCN(C)CC1 (stereo not given) | 13.6 µM (inactive)
NC(=O)N=Nc1c2[nH]c3ccccc3nc-2c2ccccc12 | 9.06 µM
CCOC(=O)c1c(NC(=O)COC(=O)c2ccccn2)sc2c1CCC2 | 7.87 µM
O=S(=O)(Nc1ccc(O)c2ccccc12)c1ccc(F)cc1 | 6.47 µM
CCOC(=O)c1ccc(COC(=O)c2ccc(-c3nnc(-c4ccccc4)o3)cc2)o1 | 6.43 µM
C=C[C@]1(C)C=C2CCC3[C@](C)(CCC[C@@]3(C)C(=O)O)C2CC1 (stereo not given in full) | 6.33 µM
N#Cc1ccc(CSc2nnc(-c3cccnc3)o2)cc1 | 11.5 µM (inactive)
Cc1ccc(S(=O)(=O)NCC(=O)OCCOc2cccc(Cl)c2)cc1 | 27.7 µM (inactive)
Cc1ccc(OCC(=O)N2CCCc3ccccc32)cc1 | 6.25 µM
COc1ccc(-c2cc(=O)oc(-c3cccc(C)c3)n2)cc1 | 8.24 µM
Cc1nn2c(NCc3ccccn3)cc(C(C)C)nc2c1-c1ccccc1 | 1.44 µM
CC1=CC2=NC(=O)/C(=C\c3ccc(OC(=O)c4ccco4)cc3)C(=N)N2O1 | 5.99 µM
COc1cccc(-c2nc(C=O)cs2)c1 | 37.2 µM (inactive)
C=C(C)C1Cc2c(C)nn(-c3nc(C)cc(C)n3)c2C1 (stereo not given) | 11.6 µM (inactive)
COc1cccc2c1C(CO)N1C(C#N)C3CC(C(=O)O)C(C1C2)N3C (stereo not given) | 2.09 µM
Cc1nc2ccc(NC(=O)COc3cccc(F)c3)cc2s1 | 7.87 µM
O=C1CC(N2CCC(c3nc4ccccc4o3)CC2)C(=O)N1 (stereo not given) | 16.3 µM (inactive)
Cc1ccccc1-n1nnc2c(=O)oc3ccccc3c21 | 0.44 µM
NC1=NC[C@H](Cc2ccccc2)N1CCCCC1CCCCC1 | 7.48 µM
COc1ccc(OCC(=O)NNC(=O)c2ccccn2)cc1 | 11.3 µM (inactive)
O=c1c(=Nc2ccccc2O)c(=O)c2ccccc12 | 2.73 µM
O=C(COC(=O)c1cc(Br)ccc1Cl)NC1CCCC1 | 4.84 µM

SMILES | IC50
COc1ccccc1C(=O)OCC(=O)Nc1ccc(Cl)cn1 | 16.2 µM (inactive)
CCc1ccc(/C=N/NC(=O)c2ccccn2)cc1 | 24.8 µM (inactive)
Cc1occc1-c1nnc(-c2cc([N+](=O)[O-])cc([N+](=O)[O-])c2)o1 | 1.56 µM
CCOC(=O)c1csc(COc2ccc(OC)cc2)n1 | 7.75 µM
c1ccc(Nc2nc(Nc3ccccc3)nc(N3CCNCC3)n2)cc1 | 12 µM (inactive)
CCOC(=O)COn1c(-c2cccc(Cl)c2)nc2ccc([N+](=O)[O-])cc21 | 19.6 µM (inactive)
S=C1NC2(CCCC2)N=C1c1ccccc1 | 12.4 µM (inactive)
CCC(=O)c1ccc(OCc2ccc(C(=O)OC)cc2)cc1 | 10.8 µM (inactive)
COc1cc(/C=C/c2ccc3c([N+](=O)[O-])cccc3n2)ccc1OCC(=O)O | 1.79 µM
COc1ccc(C(=O)COC(=O)c2ccc([N+](=O)[O-])s2)cc1OC | 2.8 µM
CCOC(=O)c1cc2cc3ccccc3cc2oc1=O | 37.6 µM (inactive)
COc1ccc(-c2nnc(NC(=O)C3=COCCO3)o2)cc1 | 27.1 µM (inactive)
COc1ccc(C(=O)N/N=C/c2cccc3cccnc23)cc1 | 6.88 µM
COc1cccc(C(=O)OCC(=O)Nc2nnc(-c3ccccc3)o2)c1 | 22.8 µM (inactive)
On1onc2c3cc(-c4ccccc4)nc3ccc21 | 0.31 µM
COc1ccc(C(C)=O)cc1COC(=O)c1ccc2ccccc2n1 | 4.38 µM
CCc1cc(C=NC2CCCCC2)c(O)s1 | 1.78 µM
O=C(Nc1nc(-c2ccccn2)cs1)c1ccco1 | 6.64 µM
Oc1ccccc1/C=N/Nc1ncc(Br)cn1 | 1.12 µM
CC(C)(C)OC(=O)NCCc1nnc(S(=O)(=O)Cc2ccc(Cl)cc2Cl)o1 | 4.85 µM
S=c1[nH]cnc2sc(-c3ccccc3)cc12 | 33.3 µM (inactive)
Clc1ccc(Cl)c(OCCCCNCc2ccccc2)c1 | 15.1 µM (inactive)

SMILES | IC50
c1cncc(-c2noc(CC3CCCCC3)n2)c1 | 1.25 µM
CCOC(=O)Nc1cccc(OCC(=O)Nc2ccccc2OC)c1 | 16.6 µM (inactive)
COc1ccccc1NC(=O)CCN1CCN(c2ccc(Cl)cc2)CC1 | 24.2 µM (inactive)
Cc1c(Cl)cccc1NC(=O)C1COc2ccccc2O1 (stereo not given) | 12.1 µM (inactive)
O=C(NNC(=O)c1cnccn1)c1ccc(Cl)c(Cl)c1 | 3.23 µM
COc1cc(/C=C2/C(=O)NN(c3cccc(C)c3)C2=O)ccc1OC(=O)c1ccco1 | 5.53 µM
O=C(OCC(=O)N1CCN(c2ccccc2)CC1)c1ccc2ccccc2n1 | 8.13 µM
COC(=O)/C(=C1/Oc2cc(C)oc(=O)c2S1)C(F)(F)F | < 0.1 µM
Cc1cccc(CSc2nnc(-c3ccco3)o2)c1 | 0.67 µM
Clc1ccccc1CSc1nnc([C@@H]2CCCN2)o1 | 12.2 µM (inactive)
COc1cccc(COC(=O)CCNC(=O)c2ccc(Cl)cc2)c1OC | 11.8 µM (inactive)
COc1ccc(NC(=O)c2cc3ccccc3o2)cc1 | 5.57 µM
CC(C)c1ccc(OCC(=O)NC2=NCCS2)cc1 | 22.2 µM (inactive)
Clc1ccc(SCCCCN2CCNCC2)cc1 | 39.3 µM (inactive)
Cc1cc(C)n(CC(=O)N/N=C/c2ccc([N+](=O)[O-])s2)n1 | 24.4 µM (inactive)
O=C(COc1ccc(Cl)cc1)Nc1ccc(Cl)cn1 | 6.56 µM
Cc1ccc2nc(NC(=O)c3ccccn3)sc2c1 | 0.63 µM
COc1ccc(C(=O)CCNc2ccc(F)cc2)cc1 | 5.22 µM
O=C(N/N=C/c1ccccc1O)c1cccc(C(F)(F)F)c1 | < 0.1 µM
